The values below come from paper PMC7719162, “Positioning of an unprecedented spiro[5.5]undeca ring system into kinase inhibitor space” (Scientific Reports, 2020).

For one series, the target named is GSK3β (Homo sapiens, UniProt P49841). Description: GSK3β radiolabelled kinase assay (% residual activity, IC50, ATP competition). In kind it is biochemical. The settings on record: for remaining activity at 10 µM: at 10 μM compound.
Series [1] deals with NO production in LPS-activated BV-2 cells. Description: NO production assay (Griess) in LPS-activated BV-2 cells. The settings on record: Mus musculus, read-out: NO Inhibition IC50. In kind it is cell-based, murine. As for the experimental part: (§1) 3-(4,5-dimethylthiazol-2-yl)-2,5-diphenyl-tetrazolium bromide (MTT) assay was performed to evaluate the cytotoxicity of the samples to the microglia. BV2 cells at the density of 4 × 10^4 cells /well were seeded in the 96 well plate and incubated for 24 h. Seeded cells were pre-treated with different concentration of the samples, and LPS (100 ng/ml) activation was performed after 30 min of compound treatment. Treated plate were incubated for 24 h in the incubator and nitric oxide assay and cell viability assay was performed. Treated cell’s conditioned medium was used to evaluate the NO assay, and the attached cells were used to evaluate the cell viability assay. 50 µL of conditioned medium (CM) from treated cells were transferred to a new 96 well plate for NO assay. This CM was mixed with the equal volume of the mixture of Gries reagent ((1% sulfanilamide and 0.1% N-1-napthylethylenediamine dihydrochloride). NaNO2 was used as standard and the colorimetric change were evidenced by measuring its OD at 540 nm in a microplate reader. The cells in the plate were incubated for 1 h with MTT solution making it the final concentration of […]. Blue stained cells were incubated with 200 ul of DMSO and the solution get changed to purple/formazan color and it was observed by measuring the absorbance at 570 nm in a microplate reader.NG-mono-methyl-L-arginine (L-NMMA), a well-known nitric oxide synthase (NOS) inhibitor, was used as a positive control.
(The Griess reaction detects nitrite, a stable product of nitric oxide.)

The nature of the next series: MTT cell viability assay. In kind it is cell-based, murine. The settings on record: mouse, BV-2 microglia cells (LPS-activated), mean ± SD; for viability at 24 h, 5 µM: 5 μM compound, % of LPS; for viability at 24 h, 1 µM: 1 μM compound. Here is the method:
as §1
A general note: Tetrazolium dyes change colour on reduction, which living cells bring about.

For another series, the target named is T1, EIF2AK1 (Homo sapiens, UniProt Q9BQI3).
T1 construct: purchased Reaction Biology Corp
T1 sequence (Q9BQI3 whole entry): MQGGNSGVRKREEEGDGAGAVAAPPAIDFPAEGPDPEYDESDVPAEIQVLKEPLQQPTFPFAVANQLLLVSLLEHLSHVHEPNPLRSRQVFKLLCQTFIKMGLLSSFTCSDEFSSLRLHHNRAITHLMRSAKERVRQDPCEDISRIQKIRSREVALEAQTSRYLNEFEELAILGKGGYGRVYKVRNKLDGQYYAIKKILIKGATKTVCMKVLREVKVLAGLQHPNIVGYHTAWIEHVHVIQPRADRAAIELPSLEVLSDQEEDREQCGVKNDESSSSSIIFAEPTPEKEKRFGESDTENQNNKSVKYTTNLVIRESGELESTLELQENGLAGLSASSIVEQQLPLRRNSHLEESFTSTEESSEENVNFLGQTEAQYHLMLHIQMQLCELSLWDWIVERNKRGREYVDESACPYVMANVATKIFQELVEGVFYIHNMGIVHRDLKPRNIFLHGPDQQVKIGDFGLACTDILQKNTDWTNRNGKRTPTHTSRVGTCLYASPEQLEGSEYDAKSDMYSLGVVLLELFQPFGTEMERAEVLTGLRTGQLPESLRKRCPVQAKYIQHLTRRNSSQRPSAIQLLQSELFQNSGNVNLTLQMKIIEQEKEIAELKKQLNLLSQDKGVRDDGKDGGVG
Description: Kinase panel assay (radiolabelled). The class given is biochemical. Particulars: control GSK-2606414. Here is the method:
Every inhibitory activity of tested compounds was measured by radiolabelled method of Reaction Biology Corp). The radiolabelled ATP ([γ-^33P] ATP) replaced a substrate with ^33P-phosphorylated substrate so that the activity of a kinase was measured from the radiolabelled phosphorylated substrate. Kinase panel assay was tested at 30 μM testing compounds with an ATP concentration of 10 μM and a substrate concentration of 10 μM. % Residual activity against GSK3β was measured at 10 uM compounds 1 and 2. […] Curve fits of control compounds were performed where the enzyme activities at the highest concentration of compounds were less than 65%. The concentration of DMSO was controlled and raw data, % kinase activity was calculated relative to DMSO controls.

Usually remaining activity stands for the signal under treatment as a percentage of the control signal. Usually IC50 stands for the concentration that gives 50% inhibition. One may read the viability as a read-out of living cells in per cent, often relative to untreated cells.

Each structure is given as a SMILES string. Like-named read-outs stand apart in the source and are kept apart here.

Sequence of GSK3β (P49841 whole entry): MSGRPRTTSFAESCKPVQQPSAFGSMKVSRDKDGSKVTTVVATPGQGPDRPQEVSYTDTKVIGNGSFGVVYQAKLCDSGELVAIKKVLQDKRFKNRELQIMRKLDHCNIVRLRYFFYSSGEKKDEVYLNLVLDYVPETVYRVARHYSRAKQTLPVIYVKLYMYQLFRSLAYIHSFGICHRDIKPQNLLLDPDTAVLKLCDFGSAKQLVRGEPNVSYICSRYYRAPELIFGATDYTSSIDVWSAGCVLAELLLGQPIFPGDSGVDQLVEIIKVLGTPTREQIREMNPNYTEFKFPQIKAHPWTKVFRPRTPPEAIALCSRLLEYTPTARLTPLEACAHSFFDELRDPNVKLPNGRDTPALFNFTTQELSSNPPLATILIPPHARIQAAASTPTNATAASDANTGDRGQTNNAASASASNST

For `COc1cc(OC)cc(-n2cc(CC3COC4(C=CC(=O)C=C4)N(c4ccccc4)C3=O)nn2)c1` (stereo not drawn) [2m, 3-((1-(3,5-B=Dimethoxyphenyl)-1H-1,2,3-triazol-4-yl)methyl)-5-phenyl-1-oxa-5-azaspiro[5.5]undeca-7,10-diene-4,9-dione], the remaining activity at 10 µM on GSK3β was found to be 114 ± 4.5%. The IC50 in series [1] was found to be 1220 ± 300 nM. Besides, the viability at 24 h, 5 µM in “MTT cell viability assay” was found to be 108 ± 5%.
On to `O=C1C=CC2(C=C1)OCC(Cc1cn(-c3ccc(S(=O)(=O)C(F)(F)F)cc3)nn1)C(=O)N2c1ccccc1` (stereo not drawn) [2k, 5-Phenyl-3-((1-(4-((trifluoromethyl)sulfonyl)phenyl)-1H-1,2,3-triazol-4-yl)methyl)-1-oxa-5-azaspiro[5.5]undeca-7,10-diene-4,9-dione], for which the remaining activity at 10 µM on GSK3β is 35.1 ± 4.2%. Moreover, in series [1], the IC50 was 770 ± 60 nM. Besides, the viability at 24 h, 5 µM in “MTT cell viability assay” was determined as 71 ± 3%.
Regarding `O=C1C=CC2(C=C1)OCC(Cc1cn(C34CC5CC(CC(C5)C3)C4)nn1)C(=O)N2c1ccccc1` [2q, 3-((1-((3R,5S)-adamantan-1-yl)-1H-1,2,3-triazol-4-yl)methyl)-5-phenyl-1-oxa-5-azaspiro[5.5]undeca-7,10-diene-4,9-dione], on GSK3β, the remaining activity at 10 µM was found to be 71.6 ± 1.4%. For the same compound, the IC50 in series [1] came to 780 ± 100 nM. Moreover, the viability at 24 h, 5 µM in the series “MTT cell viability assay” came out at 87 ± 7%.
Consider `Cc1cc(=O)oc2cc(-n3cc(CC4COC5(C=CC(=O)C=C5)N(c5ccccc5)C4=O)nn3)ccc12` (stereo not drawn) [2p, 3-((1-(4-methyl-2-oxo-2H-chromen-7-yl)-1H-1,2,3-triazol-4-yl)methyl)-5-phenyl-1-oxa-5-azaspiro[5.5]undeca-7,10-diene-4,9-dione], for which the IC50 at GSK3β (ATP 1 μM (Table 2), read-out: IC50 on GSK3β (converted)) was 11400 nM; in series [1] it was 850 ± 190 nM. The remaining activity at 10 µM at GSK3β worked out at 35.7 ± 3.7%. In addition, the viability at 24 h, 5 µM in the series “MTT cell viability assay” worked out at 97 ± 2%.
Compound `Cn1cc(-c2ccc3c(c2)CCN3C(=O)Cc2cccc(C(F)(F)F)c2)c2c(N)ncnc21` [GSK-2606414, reference compound] came in with an IC50 at EIF2AK1 of 106 nM.
Take `O=C1C=CC2(C=C1)OCC(Cc1ccccc1)C(=O)N2c1ccccc1` (stereo not drawn) [1a]: the remaining activity at 10 µM on GSK3β turned out to be 85.8 ± 16.1%. In addition, in series [1], the IC50 was 540 nM. Moreover, in “MTT cell viability assay”, the viability at 24 h, 1 µM is 95 ± 6.87% and the viability at 24 h, 5 µM is 74 ± 7%.
With `O=C1C=CC2(C=C1)OCC(Cc1cn(-c3ccc(C(F)(F)F)cc3)nn1)C(=O)N2c1ccccc1` (stereo not drawn) [2f, 5-Phenyl-3-((1-(4-(trifluoromethyl)phenyl)-1H-1,2,3-triazol-4-yl)methyl)-1-oxa-5-azaspiro[5.5]undeca-7,10-diene-4,9-dione], the remaining activity at 10 µM at GSK3β is 96.3 ± 16.5%. In addition, the IC50 in series [1] is 770 ± 20 nM. Besides, the viability at 24 h, 5 µM in “MTT cell viability assay” is 115 ± 3%.
As to `O=C1C=CC2(C=C1)OCC(Cc1cn(-c3ccc(F)cc3)nn1)C(=O)N2c1ccccc1` (stereo not drawn) [2c, 3-((1-(4-Fluorophenyl)-1H-1,2,3-triazol-4-yl)methyl)-5-phenyl-1-oxa-5-azaspiro[5.5]undeca-7,10-diene-4,9-dione], at GSK3β, the remaining activity at 10 µM was 84.8 ± 5.3%. In addition, in series [1], the IC50 is 780 ± 40 nM. In addition, in the series “MTT cell viability assay”, the viability at 24 h, 5 µM was 109 ± 13%.
Consider `C#CCC1COC2(C=CC(=O)C=C2)N(c2ccccc2)C1=O` (stereo not drawn) [compound 7, 5-Phenyl-3-(prop-2-yn-1-yl)-1-oxa-5-azaspiro[5.5]undeca-7,10-diene-4,9-dione], for which the remaining activity at 10 µM on GSK3β was found to be 55.7 ± 8.4%. For the same compound, the IC50 in series [1] came to 680 ± 70 nM. The viability at 24 h, 5 µM in the series “MTT cell viability assay” is 100 ± 24%.
Regarding `O=C1C=CC2(C=C1)OCC(Cc1cn(-c3ccc(Br)cc3)nn1)C(=O)N2c1ccccc1` (stereo not drawn) [2e, 3-((1-(4-Bromophenyl)-1H-1,2,3-triazol-4-yl)methyl)-5-phenyl-1-oxa-5-azaspiro[5.5]undeca-7,10-diene-4,9-dione], the remaining activity at 10 µM on GSK3β came to 69.6 ± 5.1%. Also, in series [1], the IC50 came to 670 ± 10 nM. Moreover, in the series “MTT cell viability assay”, the viability at 24 h, 1 µM was 106 ± 1.28% and the viability at 24 h, 5 µM is 93 ± 6%.
For `O=C1C=CC2(C=C1)OCC(Cc1cn(Cc3ccccc3)nn1)C(=O)N2c1ccccc1` (stereo not drawn) [2r, 3-((1-Benzyl-1H-1,2,3-triazol-4-yl)methyl)-5-phenyl-1-oxa-5-azaspiro[5.5]undeca-7,10-diene-4,9-dione], in that order: 61.7 ± 13.8%, 650 ± 60 nM, 101.3 ± 0.67% and 75 ± 11%.
For the compound `O=C1C=CC2(C=C1)OCC(Cc1cn(-c3cccc(Cc4ccccc4)c3)nn1)C(=O)N2c1ccccc1` (stereo not drawn) [2j, 3-((1-(3-Benzylphenyl)-1H-1,2,3-triazol-4-yl)methyl)-5-phenyl-1-oxa-5-azaspiro[5.5]undeca-7,10-diene-4,9-dione], the IC50 was determined as 2650 nM on GSK3β (ATP 1 µM, 10-dose, threefold dilution from 10 μM, read-out: IC50 of GSK3β activity); 3530 nM at GSK3β (ATP 10 µM, 10-dose, threefold dilution from 10 μM, read-out: IC50 of GSK3β activity); 3790 nM at GSK3β (ATP 50 µM, 10-dose, threefold dilution from 10 μM, read-out: IC50 of GSK3β activity); 4040 nM at GSK3β (ATP 100 µM, 10-dose, threefold dilution from 10 μM, read-out: IC50 of GSK3β activity); 3450 nM at GSK3β (ATP 200 µM, 10-dose, threefold dilution from 10 μM, read-out: IC50 of GSK3β activity); 630 ± 10 nM in series [1]. Besides, the “dependence of GSK3β IC50 on ATP concentration” value at GSK3β (ATP 1, 10, 50, 100 and 200 µM) is recorded as “retained its IC50 activity regardless of the ATP concentration”. Further, on GSK3β, the remaining activity at 10 µM was 10.5 ± 2%. In the series “MTT cell viability assay”, the viability at 24 h, 1 µM was found to be 107 ± 6.88%. In the series “MTT cell viability assay”, the viability at 24 h, 5 µM was 74 ± 4%.
For `[H]/N=C(/NC)NCCC[C@H](N)C(=O)O` [L-NMMA, NG-mono-methyl-L-arginine, reference compound], the IC50 in series [1] amounted to 19600 ± 420 nM. In addition, in the series “MTT cell viability assay”, the viability at 24 h, 1 µM amounted to 101 ± 1.6% and the viability at 24 h, 5 µM was 105 ± 4%.
For `O=C1C=CC2(C=C1)OCC(Cc1cn(-c3ccc4c(c3)OCO4)nn1)C(=O)N2c1ccccc1` (stereo not drawn) [2o, 3-((1-(benzo[d][1,3]dioxol-5-yl)-1H-1,2,3-triazol-4-yl)methyl)-5-phenyl-1-oxa-5-azaspiro[5.5]undeca-7,10-diene-4,9-dione], at GSK3β, the remaining activity at 10 µM came out at 75 ± 0.7%. Also, the IC50 in series [1] stood at 740 ± 80 nM. Moreover, the viability at 24 h, 5 µM in “MTT cell viability assay” was 89 ± 8%.
For the compound `CC(=O)Nc1ccc(-n2cc(CC3COC4(C=CC(=O)C=C4)N(c4ccccc4)C3=O)nn2)cc1` (stereo not drawn) [2l, N-(4-(4-((4,9-Dioxo-5-phenyl-1-oxa-5-azaspiro[5.5]undeca-7,10-dien-3-yl)methyl)-1H-1,2,3-triazol-1-yl)phenyl)acetamide], the remaining activity at 10 µM at GSK3β amounted to 122 ± 2.3%. Besides, the IC50 in series [1] was determined as 930 ± 60 nM. Further, the viability at 24 h, 5 µM in “MTT cell viability assay” was 109 ± 16%.
For `COc1cc(-n2cc(CC3COC4(C=CC(=O)C=C4)N(c4ccccc4)C3=O)nn2)ccc1F` (stereo not drawn) [2n, 3-((1-(4-fluoro-3-methoxyphenyl)-1H-1,2,3-triazol-4-yl)methyl)-5-phenyl-1-oxa-5-azaspiro[5.5]undeca-7,10-diene-4,9-dione], in that order: 85.6 ± 2%, 850 ± 40 nM and 102 ± 8%.
Taken in the same sequence, the figures for `O=C1C=CC2(C=C1)OCC(Cc1cn(-c3cccnc3)nn1)C(=O)N2c1ccccc1` (stereo not drawn) [2b, 5-Phenyl-3-((1-(pyridin-3-yl)-1H-1,2,3-triazol-4-yl)methyl)-1-oxa-5-azaspiro[5.5]undeca-7,10-diene-4,9-dione] were 87.5 ± 0.6%, 870 ± 110 nM and 120 ± 11%.
For `COc1ccc(-n2cc(CC3COC4(C=CC(=O)C=C4)N(c4ccccc4)C3=O)nn2)cc1` (stereo not drawn) [2h, 3-((1-(4-Methoxyphenyl)-1H-1,2,3-triazol-4-yl)methyl)-5-phenyl-1-oxa-5-azaspiro[5.5]undeca-7,10-diene-4,9-dione], at GSK3β, the remaining activity at 10 µM was determined as 112 ± 4.5%. Further, the IC50 in series [1] was 760 ± 10 nM. The viability at 24 h, 5 µM in the series “MTT cell viability assay” stood at 124 ± 7%.
On to `N#Cc1cccc(-n2cc(CC3COC4(C=CC(=O)C=C4)N(c4ccccc4)C3=O)nn2)c1` (stereo not drawn) [2g, 3-(4-((4,9-Dioxo-5-phenyl-1-oxa-5-azaspiro[5.5]undeca-7,10-dien-3-yl)methyl)-1H-1,2,3-triazol-1-yl)benzonitrile], for which the remaining activity at 10 µM at GSK3β worked out at 41.8 ± 0.9%. In series [1], the IC50 stood at 800 ± 130 nM. In addition, in “MTT cell viability assay”, the viability at 24 h, 5 µM stood at 128 ± 17%.
Turning to `CSc1ccc(-n2cc(CC3COC4(C=CC(=O)C=C4)N(c4ccccc4)C3=O)nn2)cc1` (stereo not drawn) [2i, 3-((1-(4-(Methylthio)phenyl)-1H-1,2,3-triazol-4-yl)methyl)-5-phenyl-1-oxa-5-azaspiro[5.5]undeca-7,10-diene-4,9-dione], the remaining activity at 10 µM at GSK3β came to 66.9 ± 11.4%. In addition, in series [1], the IC50 is 980 ± 40 nM. Besides, the viability at 24 h, 5 µM in “MTT cell viability assay” worked out at 121 ± 2%.
